The record followed here is patent EP0454461A1, “Selective amplification system using Q beta replicase, a hybridization assay and a method of detecting and assessing concentration of target nucleic acid in liquid samples” (GENE-TRAK SYSTEMS CORPORATION, priority 1990, dated 1991).

Test [1] has as its system Qβ replicase. Briefly: Inhibition by dyes of MDV-1 replication in linear-phase Qβ replicase reactions. The test is classed as biochemical, bacteriophage Qβ. Particulars: about 3µg/ml dye; MDV-1 template. On the procedure: A number of dyes, including ethidium bromide, ethidium bromide homodimer, propidium iodide, proflavine, quinacrine, Hoescht 33258 (bis-benzamidine), dimidium bromide and acridine orange, were tested for their ability to inhibit the replication of MDV-1 in linear-phase reactions, i.e., where the template RNA is present in excess over the enzyme and the amount of replicated RNA thus increases linearly with time. […] One of the strongest inhibitors, propidium iodide, was selected for further study. A concentration of dye producing a 70% inhibition of replication, about 3µg/ml, is sufficiently low to allow detection of the fluorescence increase produced when the dye binds to the RNA products of the reaction.

Test [2] concerns Qβ replicase. The experiment in a line: Effect of propidium iodide on replication of wild type MDV-1 RNA in a Qβ replicase preparation (32P-CTP incorporation, geometric phase). The test is classed as biochemical, bacteriophage Qβ. The following applies: wild type MDV-1 template. The protocol:
Propidium iodide was tested for its effect on the replication of wild type RNA in a preparation of Qβ replicase. Propidium iodide in an amount of either 0, 1, or 3µg/ml was added to a reaction buffer containing: 90mM Tris HC1 (pH7.5), 14mM MgC1₂, 0.4mM each ATP, GTP, UTP, and CTP, and 10µCi α-³²P-CTP. The Qβ replicase reaction was initiated in each sample by addition of 1.2µg of Qβ replicase prepared according to the method of Eoyang and August, (1972), ibid. Aliquots of the reaction mixture were withdrawn every 5 minutes and spotted on DE81 filters (Schleicher & Schuell Inc., Keene, NH). The spotted filters were washed repeatedly with 0.5M NaPO₄, (pH7.0) to remove unincorporated nucleotide. The filters were counted for Cerenkov radiation by standard procedures in a scintillation counter. Addition of propidium iodide delayed the point in time at which levels of incorporation resulting from the replication of wild type MDV-1 template became detectable. One microgram per milliter delayed the appearance of replicated product between about 2-5 minutes, which corresponds to about 20-50% inhibition of the rate of replication in the geometric phase, and 3µg/ml delayed the appearance of product for about 20 minutes, which corresponds to approximately a 3-fold reduction in the rate of replication.

`CC[N+](C)(CC)CCC[n+]1c(-c2ccccc2)c2cc(N)ccc2c2ccc(N)cc21` [propidium iodide]: the inhibition of replication in the test on Qβ replicase [1] came out at 70%. For the same compound, in the test on Qβ replicase [2] (1 µg/ml propidium iodide), the “delay of the appearance of replicated product” value lay in the range of 2 to 5 min and the “inhibition of the rate of replication in the geometric phase” value was 20-50%. Moreover, in the test on Qβ replicase [2] (3µg/ml propidium iodide), the “delay of the appearance of product” value was “about 20 minutes” and the “reduction in the rate of replication” value is given as approximately 3 fold.
